Test results reported in patent US12042478B2, “(R)-2-[(2H-1,3-benzodioxol-5-yl)methyl]pyrrolidine and processes for preparation, compositions and uses thereof” (Pharmala Biotech Inc., priority 2022, dated 2024).

Experiments:
Assay type in all cases: in vivo, mouse
C57 and BTBR mice [1] = assay: Social preference procedure: novelty preference test; conditions: 1 mg/kg IP
Method: (§1) All drugs were dissolved in physiological 0.9% saline and administered at a constant volume of 1 ml/100 g body weight. Because all drugs utilized in these studies were synthesized as hydrochloride (HCl) salts, they were weighed as salts prior to the preparation of all solutions. All drugs at all concentrations are readily dissolved in an aqueous solution at normal pH. Injections of all drugs were administered intraperitoneally (IP) to mimic pharmacokinetic parameters typical of oral administration, without the behaviour-impairing effects of gavage stress.
(§2) This assay was conducted in adult male C57 and BTBR mice (n=6 per group) in a dedicated conditioning room where ambient light, sound, and human contact were tightly controlled.
Social preference chambers consisted of two polycarbonate boxes (13.5 cm wide×22.5 cm tall×31.0 cm deep), floored with rough-textured black ABS plastic, and connected to one another by a 1.25″ PVC T-junction. An infrared photobeam emitter/detector array was mounted at each intersection of the T-junction and each preference compartment, and as a mouse traversed the apparatus, it would break the photobeam upon entry to or exit from each preference compartment. Beam breaks started or stopped a counter on an interfaced computer, allowing automated collection of time spent in each compartment. At the end of each test, data were reported as time (in seconds) spent in each compartment, the number of entries into each compartment, and the average time spent in each compartment following an entry. Social preference tests were conducted in an iterative manner, with each test subject completing four distinct phases as described below. Between testing sessions, chambers were sanitized by wiping the insides with a disinfectant product provided by the UAMS Department of Laboratory Animal Medicine. At the end of the week (upon completion of all phases of the procedure), each apparatus was disassembled and all parts were sanitized. No food or water were available during social preference sessions, but were available in the home cage immediately afterwards. […]

C57 and BTBR mice [2] = assay: Social preference procedure: sociability test; conditions: 1 mg/kg IP
Method: as §1, §2
(§3) Social preference chambers consisted of two polycarbonate boxes (13.5 cm wide×22.5 cm tall×31.0 cm deep), floored with rough-textured black ABS plastic, and connected to one another by a 1.25″ PVC T-junction. An infrared photobeam emitter/detector array was mounted at each intersection of the T-junction and each preference compartment, and as a mouse traversed the apparatus, it would break the photobeam upon entry to or exit from each preference compartment. Beam breaks started or stopped a counter on an interfaced computer, allowing automated collection of time spent in each compartment. At the end of each test, data were reported as time (in seconds) spent in each compartment, the number of entries into each compartment, and the average time spent in each compartment following an entry. Social preference tests were conducted in an iterative manner, with each test subject completing four distinct phases as described below. Between testing sessions, chambers were sanitized by wiping the insides with a disinfectant product provided by the UAMS Department of Laboratory Animal Medicine. At the end of the week (upon completion of all phases of the procedure), each apparatus was disassembled and all parts were sanitized. No food or water were available during social preference sessions, but were available in the home cage immediately afterwards.
A single sociability session occurred the day after the novelty preference test, where one compartment contained a wire mesh cup with a dummy mouse inside while the other compartment contained a male NIH Swiss stranger mouse inside the previously empty cup (see FIG. 4). […] The position of the dummy mouse (left or right compartment) remained the same for each subject as during the novelty test the day before, thereby counterbalancing the position of the stranger mouse across subjects. NIH Swiss stranger mice were similar in mass and appearance to the dummy PVC mice, and were housed separately from the experimental subjects (C57 and BTBR mice) in the colony facility. The first time the experimental subjects ever encountered the stranger mice was when they entered the compartment where they were contained. During this session, mice were weighed, administered the same injection as the day before, and returned to their home cage for a 30 min pretreatment period. Mice were then introduced into the T-junction and allowed to explore both preference compartments for 15 minutes. Sociability tests always occurred on Wednesdays or Thursdays to prevent any weekend testing.

C57 and BTBR mice [3] = assay: Compartment entries during social novelty test (proxy for locomotor stimulant effects); conditions: for total entries during social novelty test: relative to saline; for compartment entries during social novelty test, change of stimulation with dose: various doses
From the text: as §3
Quantifying total entries into the preference compartments provides a proxy measurement for locomotor stimulant effects of the various doses of the various test drugs. This establishes a limit to the drug doses that can be tested in the social preference procedure, as induction of locomotor stimulant effects confounds preference assessments (because mice stop attending to the social stimuli in each compartment and instead spend their time engaged in locomotor behavior.) Motor activity varies across the distinct phases of social preference testing, in part because the habituation session is twice as long (30 minutes) as the novelty, sociability, and social novelty tests (15 minutes each), but also because mice emit high levels of exploratory behavior in novel environments. Thus, as familiarity with the test apparatus increases over successive exposures to the chambers, the number of entries decreases.
(Note that entries were collected for every test, but drug effects on entries during earlier phases may be less reliable due to the confounding influence of changing familiarity with the apparatus across phases.)

C57 and BTBR mice [4] = assay: Radiotelemetry of core temperature; conditions: for core body temperature change: 5.6 mg/kg IP; for effect on core temperature: 10 mg/kg; for core temperature response, comparison of strains: C57 vs BTBR mice
Method: The radiotelemetry assay was conducted in adult male C57 and BTBR mice (n=6 per group) in a dedicated testing room where ambient light, sound, and human contact were tightly controlled.
Prior to surgical implantation of radiotelemetry probes, mice received 3 mg/kg meloxicam (IP), and anesthesia was induced with 4% inhaled isoflurane and maintained with 1-3% isoflurane (as needed) throughout the procedure at a flow rate of 1.5 litres/minute. The abdominal area of each animal was treated with depilatory cream, then sanitized with 3 alternating scrubs with iodine and alcohol. A rostral-caudal cut approximately 1.5 cm in length was made with sterile skin scissors, providing access to the intraperitoneal cavity. A cylindrical glass-encapsulated radiotelemetry probe (model ER-4000 E-Mitter, Mini Mitter, Bend, OR, USA) was then inserted. These probes measure 15.5 mm×6.5 mm and weigh approximately 1 gram. Incisions were closed (skin layer and muscle layer separately) using reverse cutting 5-0 Vicryl absorbable sutures for the muscle layer and 5-0 nylon suture material for the skin layer. Surgeries were carried out at least 7 days before initiation of experimental conditions, allowing time for incisions to heal and for animals to recover normal body weights. Following surgery, all implanted mice were individually housed in Plexiglas cages within the telemetry room for the duration of all experiments. Implanted transmitters produce activity- and temperature-modulated signals which are sent to a receiver (model ER-4000 Receiver, Mini Mitter Co., Inc.) underneath each cage. Following use, telemetry probes were removed from carcasses, wiped with alcohol swabs, and stored in the disinfectant solution until re-use.
At least 7 days after surgical implantation of radiotelemetry probes, mice in their individual home cages were placed atop a telemetry energizer/receiver, which powers probes and transmits their data to an interfaced computer. Upon initiation of an experimental session, the computer collects two data updates from the probes at 5 min intervals: core temperature (in ° C.) on one channel, and locomotor counts (in arbitrary units, depending on the relative position of the probe atop the receiver) on the other. After at least 60 minutes of baseline data collection, mice were removed from their cages, injected with saline or a given dose of a specific drug, then returned to the home cage 24 hours of data collection.
Food and water were always freely available in the home cage. Mice were injected with ascending doses of a given drug, with at least 48 hours separating doses. Because there are few studies of drug effects in BTBR mice, the first drug dose tested occasionally elicited unexpectedly large locomotor effects in these animals. In these cases, smaller drug doses were tested next, after a washout period of at least one full day.

SMILES	effect on novelty preference (time spent with dummy mouse) (C57 and BTBR mice [1])	sociability (time spent with stranger mouse) (C57 and BTBR mice [2]; BTBR mice)	sociability (time spent with stranger mouse) (C57 and BTBR mice [2]; C57 mice)	total entries during social novelty test (C57 and BTBR mice [3]; 1 mg/kg, C57 mice)	core body temperature change (C57 and BTBR mice [4]; either mouse strain)	effect on core temperature (C57 and BTBR mice [4]; C57 and BTBR mice)	core temperature response, comparison of strains (C57 and BTBR mice [4]; IP)	rise in core body temperature (C57 and BTBR mice [4]; IP, any of the doses tested, C57 and BTBR mice)	dose at which hypothermic effects are noted (C57 and BTBR mice [4]; IP, both strains) [mg/kg]	hypothermic effects after injection (C57 and BTBR mice [4]; IP, both strains, greater in C57 at 10, 18, 30 and 56 mg/kg)	compartment entries during social novelty test (stimulation) (C57 and BTBR mice [3]; 1 mg/kg, BTBR mice, compared to (R)-I, racemic MDMA and saline)	compartment entries during social novelty test, change of stimulation with dose (C57 and BTBR mice [3]; BTBR mice)	compartment entries during social novelty test, change of stimulation with dose (C57 and BTBR mice [3]; C57 mice)	core body temperature change (C57 and BTBR mice [4]; C57 mice)
c1cc2c(cc1C[C@H]1CCCN1)OCO2 [(R)-I, (R)-2-[(2H-1,3-benzodioxol-5-yl)methyl]pyrrolidine]	no systematic effects	minor increase in the sociability response	no impact	only slightly increased	did not elicit a rise or drop in core body temperature	hypothermic effect	more acute response in C57 mice	did not result in a rise in core body temperature	≥ 10	dose-dependent hypothermic effects	–	–	–	–
c1cc2c(cc1C[C@@H]1CCCN1)OCO2 [(S)-I, (S)-2-[(2H-1,3-benzodioxol-5-yl)methyl]pyrrolidine]	no systematic effects	strong response in sociability	slight increase in time spent with the stranger mouse	only slightly increased	–	hypothermic effect	more acute response in C57 mice	–	–	–	substantially stimulated	increase with increasing dose	reverses	significant drop in temperature
